Experimental data as given in ChEMBL document CHEMBL1137970, “N,N-Dialkylated 4-(4-arylsulfonylpiperazine-1-carbonyl)-benzamidines and 4-((4-arylsulfonyl)-2-oxo-piperazin-1-ylmethyl)-benzamidines as potent factor Xa inhibitors” (Bioorg Med Chem Lett, 2004).

test system: not listed separately; assay: Oral bioavailability in rat; format: ADME, organism-based; conditions: in vivo

Row | bioavailability | SMILES
1 | 1.4% | CN1CCN=C1c1ccc(C(=O)N2CCN(S(=O)(=O)c3cc4cc(Cl)ccc4[nH]3)CC2)cc1
2 | 4.1% | CN(C)C(=N)c1ccc(CN2CCN(S(=O)(=O)c3cc4cc(Cl)ccc4[nH]3)CC2=O)cc1
3 | < 1% | CN(C)C(=N)c1ccc(CN2CCN(S(=O)(=O)c3cc4ccc(Cl)cc4s3)CC2=O)cc1

test system: not listed separately; assay: Plasma clearance in rats; format: ADME, organism-based; conditions: rat

Row | clearance | SMILES
4 | 42.9 mL/min/kg | CN1CCN=C1c1ccc(C(=O)N2CCN(S(=O)(=O)c3cc4cc(Cl)ccc4[nH]3)CC2)cc1

target: Prothrombin (Homo sapiens, UniProt P00734); conditions: not given

Row | IC50 | SMILES
5 | > 10 nM | CN1CCN=C1c1ccc(C(=O)N2CCN(S(=O)(=O)c3cc4ccc(Cl)cc4s3)CC2)cc1
6 | 3.2 nM | CN1CCN=C1c1ccc(C(=O)N2CCN(S(=O)(=O)c3cc4ccc(Cl)cc4s3)CC2CC(=O)N2CCOCC2)cc1 (stereo not given)

test system: not listed separately; assay: Half life in rats; format: ADME, organism-based; conditions: rat, in vivo

Row | half-life | SMILES
7 | 7.8 h | CN1CCN=C1c1ccc(C(=O)N2CCN(S(=O)(=O)c3cc4cc(Cl)ccc4[nH]3)CC2)cc1

target: Coagulation factor X (Homo sapiens, UniProt P00742); assay: In vitro inhibitory activity against Coagulation factor X was determined; conditions: not given
Sequence (P00742 41-179 limits assumed): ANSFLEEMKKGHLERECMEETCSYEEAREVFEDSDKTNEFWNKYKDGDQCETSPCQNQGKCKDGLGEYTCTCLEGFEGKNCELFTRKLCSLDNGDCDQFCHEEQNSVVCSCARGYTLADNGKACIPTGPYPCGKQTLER
Sequence (P00742 235-488 limits assumed): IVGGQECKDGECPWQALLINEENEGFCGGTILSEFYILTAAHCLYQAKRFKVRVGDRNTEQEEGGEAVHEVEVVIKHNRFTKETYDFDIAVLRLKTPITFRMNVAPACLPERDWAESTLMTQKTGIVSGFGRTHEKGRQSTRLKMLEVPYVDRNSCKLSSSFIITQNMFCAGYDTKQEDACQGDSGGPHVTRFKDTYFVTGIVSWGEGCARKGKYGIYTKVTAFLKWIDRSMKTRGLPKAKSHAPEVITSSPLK

Row | SMILES | IC50
8 | CN1CCN=C1c1ccc(C(=O)N2CCN(S(=O)(=O)c3cc4ccc(Cl)cc4s3)CC2CC(=O)O)cc1 (stereo not given) | 29 nM
9 | C#CCN(C)C(=O)CC1CN(S(=O)(=O)c2cc3ccc(Cl)cc3s2)CCN1C(=O)c1ccc(C2=NCCN2C)cc1 (stereo not given) | 19 nM
10 | N=C(c1ccc(C(=O)N2CCN(S(=O)(=O)c3cc4cc(Cl)ccc4[nH]3)CC2)cc1)N1CCCC1 | 84 nM
11 | CN(C)C(=O)CC1CN(S(=O)(=O)c2cc3ccc(Cl)cc3s2)CCN1C(=O)c1ccc(C2=NCCN2C)cc1 (stereo not given) | 7 nM
12 | CN1CCN=C1c1ccc(C(=O)N2CCN(S(=O)(=O)c3cc4cc(Cl)ccc4[nH]3)CC2CC(=O)O)cc1 (stereo not given) | 41 nM
13 | CN(C)C(=N)c1ccc(C(=O)N2CCN(S(=O)(=O)c3cc4cc(Cl)ccc4[nH]3)CC2)cc1 | 20 nM
14 | N=C(c1ccc(CN2CCN(S(=O)(=O)c3cc4cc(Cl)ccc4[nH]3)CC2=O)cc1)N1CCCC1 | 240 nM
15 | CN1CCN=C1c1ccc(C(=O)N2CCN(S(=O)(=O)c3cc4ccc(Cl)cc4s3)CC2)cc1 | 9 nM
16 | N=C(c1ccc(CN2CCN(S(=O)(=O)c3cc4ccc(Cl)cc4s3)CC2=O)cc1)N1CCC1 | 11 nM
17 | N=C(c1ccc(C(=O)N2CCN(S(=O)(=O)c3ccc4cc(Br)ccc4c3)CC2)cc1)N1CCCCC1 | 160 nM
18 | CN1CCN=C1c1ccc(C(=O)N2CCN(S(=O)(=O)c3cc4ccc(Cl)cc4s3)CC2CC(=O)N2CCC(C(=O)O)CC2)cc1 (stereo not given) | 8 nM
19 | CNC(=O)CC1CN(S(=O)(=O)c2cc3cc(Cl)ccc3[nH]2)CCN1C(=O)c1ccc(C2=NCCN2C)cc1 (stereo not given) | 11 nM
20 | N=C(c1ccc(CN2CCN(S(=O)(=O)c3cc4cc(Cl)ccc4[nH]3)CC2=O)cc1)N1CCCCC1 | 150 nM
21 | N=C(c1ccc(C(=O)N2CCN(S(=O)(=O)c3cc4ccc(Cl)cc4s3)CC2)cc1)N1CCCCC1 | 71 nM
22 | N=C(c1ccc(CN2CCN(S(=O)(=O)c3cc4ccc(Cl)cc4s3)CC2=O)cc1)N1CCCCC1 | 100 nM
23 | CN(C)C(=N)c1ccc(CN2CCN(S(=O)(=O)c3cc4cc(Cl)ccc4[nH]3)CC2=O)cc1 | 37 nM
24 | CN1CCN=C1c1ccc(C(=O)N2CCN(S(=O)(=O)c3cc4ccc(Cl)cc4s3)CC2CC(=O)N2CCN(c3ccncc3)CC2)cc1 (stereo not given) | 8 nM
25 | N=C(c1ccc(C(=O)N2CCN(S(=O)(=O)c3cc4cc(Cl)ccc4[nH]3)CC2)cc1)N1CCC1 | 24 nM
26 | N=C(c1ccc(C(=O)N2CCN(S(=O)(=O)c3ccc4cc(Br)ccc4c3)CC2)cc1)N1CCCC1 | 390 nM
27 | CN1CCN=C1c1ccc(C(=O)N2CCN(S(=O)(=O)c3cc4cc(Cl)ccc4[nH]3)CC2C(=O)O)cc1 (stereo not given) | 12 nM

Row | SMILES | IC50
28 | CN1CCN=C1c1ccc(C(=O)N2CCN(S(=O)(=O)c3cc4cc(Cl)ccc4[nH]3)CC2CC(=O)N2CCCC2)cc1 (stereo not given) | 7 nM
29 | N=C(c1ccc(C(=O)N2CCN(S(=O)(=O)c3ccc4cc(Br)ccc4c3)CC2)cc1)N1CCOCC1 | 640 nM
30 | N=C(c1ccc(CN2CCN(S(=O)(=O)c3cc4cc(Cl)ccc4[nH]3)CC2=O)cc1)N1CCC1 | 8 nM
31 | COC(=O)C1CN(S(=O)(=O)c2cc3cc(Cl)ccc3[nH]2)CCN1C(=O)c1ccc(C2=NCCN2C)cc1 (stereo not given) | 27 nM
32 | COC(=O)CC1CN(S(=O)(=O)c2cc3ccc(Cl)cc3s2)CCN1C(=O)c1ccc(C2=NCCN2C)cc1 (stereo not given) | 13 nM
33 | N=C(c1ccc(CN2CCN(S(=O)(=O)c3cc4ccc(Cl)cc4s3)CC2=O)cc1)N1CCCC1 | 140 nM
34 | CN1CCN=C1c1ccc(C(=O)N2CCN(S(=O)(=O)c3cc4ccc(Cl)cc4s3)CC2CC(=O)N2CCC2)cc1 (stereo not given) | 10 nM
35 | CN1CCCN=C1c1ccc(C(=O)N2CCN(S(=O)(=O)c3ccc4cc(Br)ccc4c3)CC2)cc1 | 430 nM
36 | CN1CCN=C1c1ccc(C(=O)N2CCN(C(=O)c3cc4cc(Cl)ccc4[nH]3)CC2)cc1 | > 11000 nM
37 | COC(=O)C1CCN(C(=O)CC2CN(S(=O)(=O)c3cc4ccc(Cl)cc4s3)CCN2C(=O)c2ccc(C3=NCCN3C)cc2)CC1 (stereo not given) | 8 nM
38 | N=C(c1ccc(C(=O)N2CCN(S(=O)(=O)c3cc4ccc(Cl)cc4s3)CC2)cc1)N1CCC1 | 25 nM
39 | COC(=O)CC1CN(S(=O)(=O)c2cc3cc(Cl)ccc3[nH]2)CCN1C(=O)c1ccc(C2=NCCN2C)cc1 (stereo not given) | 3 nM
40 | CN1CCN=C1c1ccc(C(=O)N2CCN(S(=O)(=O)c3cc4ccc(Cl)cc4s3)CC2CC(=O)N2CCOCC2)cc1 (stereo not given) | 15 nM
41 | CN(C)C(=N)c1ccc(CN2CCN(S(=O)(=O)c3cc4ccc(Cl)cc4s3)CC2=O)cc1 | 30 nM
42 | CN1CCN=C1c1ccc(C(=O)N2CCN(S(=O)(=O)c3cc4ccc(Cl)cc4s3)CC2CC(=O)N2CCCCC2)cc1 (stereo not given) | 6 nM
43 | N=C(c1ccc(C(=O)N2CCN(S(=O)(=O)c3cc4cc(Cl)ccc4[nH]3)CC2)cc1)N1CCCCC1 | 120 nM
44 | CCN1CCN=C1c1ccc(C(=O)N2CCN(S(=O)(=O)c3cc4cc(Cl)ccc4[nH]3)CC2)cc1 | 12 nM
45 | CCN(C)C(=N)c1ccc(C(=O)N2CCN(S(=O)(=O)c3cc4cc(Cl)ccc4[nH]3)CC2)cc1 | 27 nM
46 | CN(C)C(=O)CC1CN(S(=O)(=O)c2cc3cc(Cl)ccc3[nH]2)CCN1C(=O)c1ccc(C2=NCCN2C)cc1 (stereo not given) | 10 nM
47 | CN1CCN=C1c1ccc(C(=O)N2CCN(S(=O)(=O)c3ccc4cc(Br)ccc4c3)CC2)cc1 | 31 nM

More lines, now with the values ahead:

Row | IC50 | SMILES
48 | 7 nM | CN1CCN=C1c1ccc(C(=O)N2CCN(S(=O)(=O)c3cc4cc(Cl)ccc4[nH]3)CC2CC(=O)N2CCCCC2)cc1 (stereo not given)
49 | 18 nM | CN1CCN=C1c1ccc(C(=O)N2CCN(S(=O)(=O)c3cc4cc(Cl)ccc4[nH]3)CC2CC(N)=O)cc1 (stereo not given)
50 | 590 nM | CN1CCN=C1c1ccc(C(=O)N2CCN(S(=O)(=O)c3cc4ccc(Cl)cc4[nH]3)CC2)cc1
51 | 270 nM | CN1CCN=C1c1ccc(C(=O)N2CCN(S(=O)(=O)c3cc4cc(Cl)ccc4s3)CC2)cc1
52 | 57 nM | CN1CCN=C1c1ccc(CN2CCN(S(=O)(=O)c3cc4cc(Cl)ccc4[nH]3)CC2=O)cc1
53 | 45 nM | CN1CCN=C1c1ccc(CN2CCN(S(=O)(=O)c3cc4ccc(Cl)cc4s3)CC2=O)cc1
54 | 6 nM | CN1CCN=C1c1ccc(C(=O)N2CCN(S(=O)(=O)c3cc4ccc(Cl)cc4s3)CC2CC(=O)N2CCCC2)cc1 (stereo not given)
55 | 36 nM | CCN1CCN=C1c1ccc(C(=O)N2CCN(S(=O)(=O)c3cc4ccc(Cl)cc4s3)CC2)cc1
56 | 11 nM | CN1CCN=C1c1ccc(C(=O)N2CCN(S(=O)(=O)c3cc4cc(Cl)ccc4[nH]3)CC2CC(=O)N2CCOCC2)cc1 (stereo not given)
57 | 64 nM | N=C(N)c1ccc(C(=O)N2CCN(S(=O)(=O)c3ccc4cc(Br)ccc4c3)CC2)cc1
58 | 67 nM | CCN1CCN=C1c1ccc(C(=O)N2CCN(S(=O)(=O)c3ccc4cc(Br)ccc4c3)CC2)cc1
59 | 27 nM | CN(C)C(=N)c1ccc(C(=O)N2CCN(S(=O)(=O)c3cc4ccc(Cl)cc4s3)CC2)cc1
60 | 8 nM | CN1CCN=C1c1ccc(C(=O)N2CCN(S(=O)(=O)c3cc4cc(Cl)ccc4[nH]3)CC2CC(=O)N2CCN(c3ccncc3)CC2)cc1 (stereo not given)
61 | 14 nM | C#CCN(C)C(=O)CC1CN(S(=O)(=O)c2cc3cc(Cl)ccc3[nH]2)CCN1C(=O)c1ccc(C2=NCCN2C)cc1 (stereo not given)
62 | 1300 nM | O=C(c1ccc(C2=NCCCN2)cc1)N1CCN(S(=O)(=O)c2ccc3cc(Br)ccc3c2)CC1
63 | 90 nM | CCN(C)C(=N)c1ccc(C(=O)N2CCN(S(=O)(=O)c3cc4ccc(Cl)cc4s3)CC2)cc1
64 | 530 nM | O=C(c1ccc(C2=NCCN2)cc1)N1CCN(S(=O)(=O)c2ccc3cc(Br)ccc3c2)CC1
65 | 230 nM | CNC(=N)c1ccc(C(=O)N2CCN(S(=O)(=O)c3ccc4cc(Br)ccc4c3)CC2)cc1
66 | 230 nM | CN(C)C(=N)c1ccc(C(=O)N2CCN(S(=O)(=O)c3ccc4cc(Br)ccc4c3)CC2)cc1
67 | 70 nM | N=C(c1ccc(C(=O)N2CCN(S(=O)(=O)c3cc4ccc(Cl)cc4s3)CC2)cc1)N1CCCC1
68 | 5 nM | CN1CCN=C1c1ccc(C(=O)N2CCN(S(=O)(=O)c3cc4cc(Cl)ccc4[nH]3)CC2CC(=O)N2CCC2)cc1 (stereo not given)

test system: not listed separately; assay: Volume of distribution in rats; format: ADME, organism-based; conditions: rat, in vivo

Row | Vd | SMILES
69 | 28.9 L/kg | CN1CCN=C1c1ccc(C(=O)N2CCN(S(=O)(=O)c3cc4cc(Cl)ccc4[nH]3)CC2)cc1

target: Kallikrein-1 (Homo sapiens, UniProt P06870); assay: In vitro inhibitory activity against kallikrein was determined; conditions: not given
Sequence (P06870 whole entry): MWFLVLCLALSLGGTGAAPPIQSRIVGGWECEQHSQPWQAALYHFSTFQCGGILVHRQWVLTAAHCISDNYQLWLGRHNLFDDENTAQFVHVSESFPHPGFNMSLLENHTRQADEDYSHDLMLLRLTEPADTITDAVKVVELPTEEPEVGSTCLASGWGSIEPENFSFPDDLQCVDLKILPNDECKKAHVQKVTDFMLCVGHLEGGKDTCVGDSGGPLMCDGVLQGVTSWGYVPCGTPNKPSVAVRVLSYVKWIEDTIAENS

Row | IC50 | SMILES
70 | 5800 nM | CN1CCN=C1c1ccc(C(=O)N2CCN(S(=O)(=O)c3cc4cc(Cl)ccc4[nH]3)CC2)cc1
